# Test results taken from PMC9516332 (Frontiers in Oncology, 2022).
# Where two headings read alike, the source gives them in different places.
# Experiments:
# Assay in all cases: Kinase panel profiling at 1 µmol/L (MSA or IMAP), percentage inhibition
# Format in all cases: biochemical
# [1] = molecular target: T1, panel of 255 wild-type kinases (Homo sapiens, UniProt Q8IWQ3); settings: read-out: %-inhibition BRSK2
# T1 sequence (Q8IWQ3 1-736): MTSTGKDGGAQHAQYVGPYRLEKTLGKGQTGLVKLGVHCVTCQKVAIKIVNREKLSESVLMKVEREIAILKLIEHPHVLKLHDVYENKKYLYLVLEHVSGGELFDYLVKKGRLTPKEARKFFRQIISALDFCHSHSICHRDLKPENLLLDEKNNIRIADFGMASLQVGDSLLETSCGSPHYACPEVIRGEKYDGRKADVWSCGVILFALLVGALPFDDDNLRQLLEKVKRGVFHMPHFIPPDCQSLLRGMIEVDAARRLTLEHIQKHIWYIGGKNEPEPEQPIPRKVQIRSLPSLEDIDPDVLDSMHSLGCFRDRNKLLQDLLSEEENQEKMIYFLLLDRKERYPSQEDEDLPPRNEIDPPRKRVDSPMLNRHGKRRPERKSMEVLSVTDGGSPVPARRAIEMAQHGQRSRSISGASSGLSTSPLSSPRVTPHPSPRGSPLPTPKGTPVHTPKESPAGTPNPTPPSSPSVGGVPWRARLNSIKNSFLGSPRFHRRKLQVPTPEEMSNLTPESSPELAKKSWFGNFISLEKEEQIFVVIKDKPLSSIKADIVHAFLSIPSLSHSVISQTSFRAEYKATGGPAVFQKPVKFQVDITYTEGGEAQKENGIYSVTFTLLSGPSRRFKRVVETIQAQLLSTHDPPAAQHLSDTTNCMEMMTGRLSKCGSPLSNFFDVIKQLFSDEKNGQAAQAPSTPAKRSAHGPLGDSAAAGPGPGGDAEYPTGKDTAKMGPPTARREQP
# [2] = tested on: panel of 255 wild-type kinases
# [3] = molecular target: T2, panel of 255 wild-type kinases (Homo sapiens, UniProt P51817); settings: read-out: %-inhibition at 1 µmol/L, PRKX
# T2 sequence (P51817 1-358): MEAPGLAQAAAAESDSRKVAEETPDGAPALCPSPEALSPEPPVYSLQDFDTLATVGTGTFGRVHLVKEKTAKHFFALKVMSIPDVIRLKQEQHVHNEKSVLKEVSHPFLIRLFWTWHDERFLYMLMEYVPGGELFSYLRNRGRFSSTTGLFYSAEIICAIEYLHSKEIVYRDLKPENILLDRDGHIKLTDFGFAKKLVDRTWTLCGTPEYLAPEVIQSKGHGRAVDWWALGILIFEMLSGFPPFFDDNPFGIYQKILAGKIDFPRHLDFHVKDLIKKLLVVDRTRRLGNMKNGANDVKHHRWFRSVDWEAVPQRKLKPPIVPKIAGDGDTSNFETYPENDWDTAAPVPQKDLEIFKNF
# [4] = molecular target: T3, panel of 255 wild-type kinases (Homo sapiens, UniProt O15530); settings: read-out: %-inhibition at 1 µmol/L, PDK1
# T3 sequence (O15530 1-556): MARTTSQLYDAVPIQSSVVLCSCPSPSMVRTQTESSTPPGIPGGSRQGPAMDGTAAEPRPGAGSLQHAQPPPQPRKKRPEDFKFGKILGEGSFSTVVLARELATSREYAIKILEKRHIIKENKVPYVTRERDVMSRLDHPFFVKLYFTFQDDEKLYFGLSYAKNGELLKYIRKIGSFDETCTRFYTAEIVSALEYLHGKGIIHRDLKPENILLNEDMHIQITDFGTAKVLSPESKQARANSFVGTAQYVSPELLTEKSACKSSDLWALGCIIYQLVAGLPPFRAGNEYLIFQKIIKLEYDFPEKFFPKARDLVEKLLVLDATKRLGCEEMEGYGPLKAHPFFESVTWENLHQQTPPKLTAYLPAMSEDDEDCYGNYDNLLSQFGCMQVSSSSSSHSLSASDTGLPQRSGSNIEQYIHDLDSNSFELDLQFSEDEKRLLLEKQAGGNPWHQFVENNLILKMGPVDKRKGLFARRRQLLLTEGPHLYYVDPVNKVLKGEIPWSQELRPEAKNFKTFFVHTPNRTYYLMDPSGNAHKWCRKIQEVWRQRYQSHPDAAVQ
# [5] = BRSK2 kinase assay, 1 µmol/L single concentration
# [6] = kinase FYN [isoform b], 1 µmol/L single concentration
# [7] = kinase LYNb, 1 µmol/L single concentration
# [8] = kinase PKCβ2, 1 µmol/L single concentration
# [9] = kinase SRM, 1 µmol/L single concentration
# [10] = kinase PRKX, 1 µmol/L single concentration
# [11] = kinase PDK1, 1 µmol/L single concentration
structure (smiles),measurement,setting,value
Cn1cc(-c2cc3c(N4CCN(c5ncc([C@@](C)(N)c6ccc(F)cc6)cn5)CC4)ncnn3c2)cn1 [avapritinib],inhibition at 1 µM,[1]; [5],11%
same,"%-inhibition at 1 µmol/L, FYN [isoform b]",[2]; [6],3%
same,"%-inhibition at 1 µmol/L, LYNb",[2]; [7],83%
same,"%-inhibition at 1 µmol/L, PKCβ2",[2]; [8],-0.278%
same,"%-inhibition at 1 µmol/L, SRM",[2]; [9],0.441%
same,inhibition at 1 µM,[3]; [10],37%
same,inhibition at 1 µM,[4]; [11],6.57%
C[C@H](Nc1ncnc2nc[nH]c12)c1cc2cccc(Cl)c2c(=O)n1-c1ccccc1 [duvelisib],inhibition at 1 µM,[1]; [5],11%
same,inhibition of profiled kinases in biochemical assays,[2]; 1 µmol/L inhibitor,did not inhibit FLT3 or any of the other profiled tyrosine or serine/threonine kinases
same,"%-inhibition at 1 µmol/L, FYN [isoform b]",[2]; [6],0.6%
same,"%-inhibition at 1 µmol/L, LYNb",[2]; [7],3%
same,"%-inhibition at 1 µmol/L, PKCβ2",[2]; [8],1.61%
same,"%-inhibition at 1 µmol/L, SRM",[2]; [9],4%
same,inhibition at 1 µM,[3]; [10],0.385%
same,inhibition at 1 µM,[4]; [11],2.42%
COc1cc2ncnc(Nc3ccc(F)c(Cl)c3)c2cc1NC(=O)/C=C/CN1CCCCC1 [dacomitinib],inhibition at 1 µM,[1]; [5],6.47%
same,"%-inhibition at 1 µmol/L, FYN [isoform b]",[2]; [6],37%
same,"%-inhibition at 1 µmol/L, LYNb",[2]; [7],74%
same,"%-inhibition at 1 µmol/L, PKCβ2",[2]; [8],5.44%
same,"%-inhibition at 1 µmol/L, SRM",[2]; [9],1.79%
same,inhibition at 1 µM,[3]; [10],0.677%
same,inhibition at 1 µM,[4]; [11],-7%
CCN1CCN(c2ccc(Nc3cc(N(C)C(=O)Nc4c(Cl)c(OC)cc(OC)c4Cl)ncn3)cc2)CC1 [infigratinib],inhibition at 1 µM,[1]; [5],2.65%
same,"%-inhibition at 1 µmol/L, FYN [isoform b]",[2]; [6],43%
same,"%-inhibition at 1 µmol/L, LYNb",[2]; [7],84%
same,"%-inhibition at 1 µmol/L, PKCβ2",[2]; [8],1.5%
same,"%-inhibition at 1 µmol/L, SRM",[2]; [9],-2.75%
same,inhibition at 1 µM,[3]; [10],-3.53%
same,inhibition at 1 µM,[4]; [11],1.36%
Cn1cnc2c(F)c(Nc3ccc(Br)cc3Cl)c(C(=O)NOCCO)cc21 [selumetinib],inhibition at 1 µM,[1]; [5],4%
same,"%-inhibition at 1 µmol/L, FYN [isoform b]",[2]; [6],-1.85%
same,"%-inhibition at 1 µmol/L, LYNb",[2]; [7],7%
same,"%-inhibition at 1 µmol/L, PKCβ2",[2]; [8],-2%
same,"%-inhibition at 1 µmol/L, SRM",[2]; [9],-1.41%
same,inhibition at 1 µM,[3]; [10],-4.53%
same,inhibition at 1 µM,[4]; [11],2.11%
CNC(=O)c1ccc(-c2cnc3ncc(Cc4ccc5ncccc5c4)n3n2)cc1F [capmatinib],inhibition at 1 µM,[1],1%
same,"%-inhibition at 1 µmol/L, FYN [isoform b]",[2],-1.2%
same,"%-inhibition at 1 µmol/L, LYNb",[2],0.305%
same,"%-inhibition at 1 µmol/L, PKCβ2",[2],-2%
same,"%-inhibition at 1 µmol/L, SRM",[2],-0.916%
same,inhibition at 1 µM,[3],-5.65%
same,inhibition at 1 µM,[4],4%
COC(=O)N[C@@H](C)CNc1nccc(-c2cn(C(C)C)nc2-c2cc(Cl)cc(NS(C)(=O)=O)c2F)n1 [encorafenib],inhibition at 1 µM,[1]; [5],-8%
same,"%-inhibition at 1 µmol/L, FYN [isoform b]",[2]; [6],4.62%
same,"%-inhibition at 1 µmol/L, LYNb",[2]; [7],4%
same,"%-inhibition at 1 µmol/L, PKCβ2",[2]; [8],2.15%
same,"%-inhibition at 1 µmol/L, SRM",[2]; [9],85%
same,inhibition at 1 µM,[3]; [10],1.82%
same,inhibition at 1 µM,[4]; [11],-2.17%
Cc1cc(Nc2ncnc3ccc(NC4=NC(C)(C)CO4)cc23)ccc1Oc1ccn2ncnc2c1 [tucatinib],inhibition at 1 µM,[1]; [5],7%
same,"%-inhibition at 1 µmol/L, FYN [isoform b]",[2]; [6],-1.06%
same,"%-inhibition at 1 µmol/L, LYNb",[2]; [7],6%
same,"%-inhibition at 1 µmol/L, PKCβ2",[2]; [8],-1.5%
same,"%-inhibition at 1 µmol/L, SRM",[2]; [9],2.77%
same,inhibition at 1 µM,[3]; [10],-1.54%
same,inhibition at 1 µM,[4]; [11],3%
C=CC(=O)N1CCC([C@@H]2CCNc3c(C(N)=O)c(-c4ccc(Oc5ccccc5)cc4)nn32)CC1 [zanubrutinib],inhibition at 1 µM,[1]; [5],0.0746%
same,"%-inhibition at 1 µmol/L, FYN [isoform b]",[2]; [6],22%
same,"%-inhibition at 1 µmol/L, LYNb",[2]; [7],55%
same,"%-inhibition at 1 µmol/L, PKCβ2",[2]; [8],-1.66%
same,"%-inhibition at 1 µmol/L, SRM",[2]; [9],58%
same,inhibition at 1 µM,[3]; [10],-1%
same,inhibition at 1 µM,[4]; [11],0.547%
Cn1cnc2c(F)c(Nc3ccc(Br)cc3F)c(C(=O)NOCCO)cc21 [binimetinib],inhibition at 1 µM,[1]; [5],-13%
same,"%-inhibition at 1 µmol/L, FYN [isoform b]",[2]; [6],4%
same,"%-inhibition at 1 µmol/L, LYNb",[2]; [7],4.22%
same,"%-inhibition at 1 µmol/L, PKCβ2",[2]; [8],-1.88%
same,"%-inhibition at 1 µmol/L, SRM",[2]; [9],-1.11%
same,inhibition at 1 µM,[3]; [10],2.57%
same,inhibition at 1 µM,[4]; [11],0.386%
COc1ccc(CN2C3CC2CN(c2ccc(-c4cc(OCC(C)(C)O)cn5ncc(C#N)c45)cn2)C3)cn1 [selpercatinib],inhibition at 1 µM,[1]; [5],35%
same,number of the 255 profiled kinases inhibited by more than 50%,[2]; 1 µmol/L inhibitor,46
same,"%-inhibition at 1 µmol/L, FYN [isoform b]",[2]; [6],10%
same,"%-inhibition at 1 µmol/L, LYNb",[2]; [7],52%
same,"%-inhibition at 1 µmol/L, PKCβ2",[2]; [8],-1.06%
same,"%-inhibition at 1 µmol/L, SRM",[2]; [9],-1.55%
same,inhibition at 1 µM,[3]; [10],55%
same,inhibition at 1 µM,[4]; [11],7%
CCN1C(=O)N(c2c(F)c(OC)cc(OC)c2F)Cc2cnc3[nH]c(CN4CCOCC4)cc3c21 [pemigatinib],inhibition at 1 µM,[1]; [5],3.17%
same,"%-inhibition at 1 µmol/L, FYN [isoform b]",[2]; [6],14%
same,"%-inhibition at 1 µmol/L, LYNb",[2]; [7],64%
same,"%-inhibition at 1 µmol/L, PKCβ2",[2]; [8],-1.57%
same,"%-inhibition at 1 µmol/L, SRM",[2]; [9],-3.44%
same,inhibition at 1 µM,[3]; [10],-1.75%
same,inhibition at 1 µM,[4]; [11],0.293%
CN1CCN(c2ccc(C(=O)Nc3n[nH]c4ccc(Cc5cc(F)cc(F)c5)cc34)c(NC3CCOCC3)c2)CC1 [entrectinib],inhibition at 1 µM,[1]; [5],18%
same,"%-inhibition at 1 µmol/L, FYN [isoform b]",[2],95%
same,"%-inhibition at 1 µmol/L, LYNb",[2],72%
same,"%-inhibition at 1 µmol/L, PKCβ2",[2],14%
same,"%-inhibition at 1 µmol/L, SRM",[2],72%
same,number of the 255 profiled kinases inhibited by more than 50%,[2],75
same,inhibition at 1 µM,[3]; [10],2.19%
same,inhibition at 1 µM,[4]; [11],0.207%
CO[C@]1(C(=O)N[C@@H](C)c2ccc(-n3cc(F)cn3)nc2)CC[C@H](c2nc(C)cc(Nc3cc(C)[nH]n3)n2)CC1 [pralsetinib],inhibition at 1 µM,[1]; [5],14%
same,number of the 255 profiled kinases inhibited by more than 50%,[2]; 1 µmol/L inhibitor,71
same,"%-inhibition at 1 µmol/L, FYN [isoform b]",[2]; [6],30%
same,"%-inhibition at 1 µmol/L, LYNb",[2]; [7],89%
same,"%-inhibition at 1 µmol/L, PKCβ2",[2]; [8],-1.78%
same,"%-inhibition at 1 µmol/L, SRM",[2]; [9],13%
same,inhibition at 1 µM,[3]; [10],-0.557%
same,inhibition at 1 µM,[4]; [11],9%
